The compounds below were run on MCH receptors (assay: MCH receptor activity class (method not given)). Conditions: class by percent of control at 10^-7 M or IC50.
CN(C)c1nc(N[C@H]2CC[C@@H](CNCC=C(c3ccccc3)c3ccccc3)CC2)nc2c1CCCC2 [compound 1400] was tested, and the class was 1 (Class 1: The value of percent of control at 10^−7 M was less than 40% or the value of IC50 was less than 50 nM.).
For CCOc1cc(CNC[C@H]2CC[C@@H](Nc3nc4c(c(N(C)C)n3)CCCC4)CC2)ccc1O [compound 1401], the class was 2 (Class 2: The value of percent of control at 10^−7 M was from 40% to 60% or the value of IC′50 was from 50 nM to 200 nM.).
In the case of CN(C)c1nc(N[C@H]2CC[C@@H](CNCc3ccc(N(C)C)c4ccccc34)CC2)nc2c1CCCC2 [compound 1402], the class was 2 (Class 2: The value of percent of control at 10^−7 M was from 40% to 60% or the value of IC′50 was from 50 nM to 200 nM.).
For COc1cc(OC)c(CNC[C@H]2CC[C@@H](Nc3nc4c(c(N(C)C)n3)CCCC4)CC2)c(OC)c1 [compound 1403], the class was 1 (Class 1: The value of percent of control at 10^−7 M was less than 40% or the value of IC50 was less than 50 nM.).
CN(C)c1nc(N[C@H]2CC[C@@H](CNCc3cc(Cl)cc(Br)c3O)CC2)nc2c1CCCC2 [compound 1404] was tested, and the class was 2 (Class 2: The value of percent of control at 10^−7 M was from 40% to 60% or the value of IC′50 was from 50 nM to 200 nM.).
With CN(C)c1nc(N[C@H]2CC[C@@H](CNCc3cccc(C#N)c3)CC2)nc2c1CCCC2 [compound 1405] the class was 3 (Class 3 The value of percent of control at 10^−7 M was more than 60% or the value of IC50 was more than 200 nM.).
With COc1ccc(F)c(CNC[C@H]2CC[C@@H](Nc3nc4c(c(N(C)C)n3)CCCC4)CC2)c1 [compound 1406] the class was 3 (Class 3 The value of percent of control at 10^−7 M was more than 60% or the value of IC50 was more than 200 nM.).
CN(C)c1nc(N[C@H]2CC[C@@H](CNCc3ccccc3SC(F)(F)F)CC2)nc2c1CCCC2 [compound 1407] was tested, and the class was 3 (Class 3 The value of percent of control at 10^−7 M was more than 60% or the value of IC50 was more than 200 nM.).
CCOc1ccc(Br)cc1CNC[C@H]1CC[C@@H](Nc2nc3c(c(N(C)C)n2)CCCC3)CC1 [compound 1408] was tested, and the class was 3 (Class 3 The value of percent of control at 10^−7 M was more than 60% or the value of IC50 was more than 200 nM.).
In the case of COc1ccc(CNC[C@H]2CC[C@@H](Nc3nc4c(c(N(C)C)n3)CCCC4)CC2)c(OC)c1C [compound 1409], the class was 3 (Class 3 The value of percent of control at 10^−7 M was more than 60% or the value of IC50 was more than 200 nM.).
In the case of CN(C)c1nc(N[C@H]2CC[C@@H](CNCc3ccccc3OC(F)(F)F)CC2)nc2c1CCCC2 [compound 1410], the class was 3 (Class 3 The value of percent of control at 10^−7 M was more than 60% or the value of IC50 was more than 200 nM.).
For CCOc1ccc(OCC)c(CNC[C@H]2CC[C@@H](Nc3nc4c(c(N(C)C)n3)CCCC4)CC2)c1 [compound 1411], the class was 1 (Class 1: The value of percent of control at 10^−7 M was less than 40% or the value of IC50 was less than 50 nM.).
With CCOc1ccc(CNC[C@H]2CC[C@@H](Nc3nc4c(c(N(C)C)n3)CCCC4)CC2)c(OCC)c1 [compound 1412] the class was 1 (Class 1: The value of percent of control at 10^−7 M was less than 40% or the value of IC50 was less than 50 nM.).
COc1c(Br)cc(Br)cc1CNC[C@H]1CC[C@@H](Nc2nc3c(c(N(C)C)n2)CCCC3)CC1 [compound 1413] was tested, and the class was 1 (Class 1: The value of percent of control at 10^−7 M was less than 40% or the value of IC50 was less than 50 nM.).
In the case of CN(C)c1nc(N[C@H]2CC[C@@H](CNCc3ccccc3OC(F)F)CC2)nc2c1CCCC2 [compound 1414], the class was 3 (Class 3 The value of percent of control at 10^−7 M was more than 60% or the value of IC50 was more than 200 nM.).
COc1ccc(F)cc1CNC[C@H]1CC[C@@H](Nc2nc3c(c(N(C)C)n2)CCCC3)CC1 [compound 1415] was tested, and the class was 3 (Class 3 The value of percent of control at 10^−7 M was more than 60% or the value of IC50 was more than 200 nM.).
With COc1cc(OC)c(OC)cc1CNC[C@H]1CC[C@@H](Nc2nc3c(c(N(C)C)n2)CCCC3)CC1 [compound 1417] the class was 1 (Class 1: The value of percent of control at 10^−7 M was less than 40% or the value of IC50 was less than 50 nM.).
With COc1cccc(CNC[C@H]2CC[C@@H](Nc3nc4c(c(N(C)C)n3)CCCC4)CC2)c1OC [compound 1418] the class was 3 (Class 3 The value of percent of control at 10^−7 M was more than 60% or the value of IC50 was more than 200 nM.).
In the case of C=CCOc1ccccc1CNC[C@H]1CC[C@@H](Nc2nc3c(c(N(C)C)n2)CCCC3)CC1 [compound 1419], the class was 3 (Class 3 The value of percent of control at 10^−7 M was more than 60% or the value of IC50 was more than 200 nM.).
CN(C)c1nc(N[C@H]2CC[C@@H](CNCc3csc4ccccc34)CC2)nc2c1CCCC2 [compound 1420] was tested, and the class was 3 (Class 3 The value of percent of control at 10^−7 M was more than 60% or the value of IC50 was more than 200 nM.).
For CN(C)c1nc(N[C@H]2CC[C@@H](CNCc3cn(C)c4ccccc34)CC2)nc2c1CCCC2 [compound 1421], the class was 3 (Class 3 The value of percent of control at 10^−7 M was more than 60% or the value of IC50 was more than 200 nM.).
For Cc1ccc(CNC[C@H]2CC[C@@H](Nc3nc4c(c(N(C)C)n3)CCCC4)CC2)s1 [compound 1422], the class was 3 (Class 3 The value of percent of control at 10^−7 M was more than 60% or the value of IC50 was more than 200 nM.).
With Cc1cc(C)c(CNC[C@H]2CC[C@@H](Nc3nc4c(c(N(C)C)n3)CCCC4)CC2)c(C)c1 [compound 1423] the class was 3 (Class 3 The value of percent of control at 10^−7 M was more than 60% or the value of IC50 was more than 200 nM.).
In the case of CN(C)c1nc(N[C@H]2CC[C@@H](CNCc3ccc4c(c3)OCO4)CC2)nc2c1CCCC2 [compound 1424], the class was 3 (Class 3 The value of percent of control at 10^−7 M was more than 60% or the value of IC50 was more than 200 nM.).
In the case of CN(C)c1nc(N[C@H]2CC[C@@H](CNCc3ccsc3)CC2)nc2c1CCCC2 [compound 1425], the class was 3 (Class 3 The value of percent of control at 10^−7 M was more than 60% or the value of IC50 was more than 200 nM.).
In the case of Cc1cccc(CNC[C@H]2CC[C@@H](Nc3nc4c(c(N(C)C)n3)CCCC4)CC2)c1 [compound 1426], the class was 3 (Class 3 The value of percent of control at 10^−7 M was more than 60% or the value of IC50 was more than 200 nM.).
With Cc1ccccc1CNC[C@H]1CC[C@@H](Nc2nc3c(c(N(C)C)n2)CCCC3)CC1 [compound 1427] the class was 3 (Class 3 The value of percent of control at 10^−7 M was more than 60% or the value of IC50 was more than 200 nM.).
Cc1ccc(CNC[C@H]2CC[C@@H](Nc3nc4c(c(N(C)C)n3)CCCC4)CC2)cc1 [compound 1428] was tested, and the class was 3 (Class 3 The value of percent of control at 10^−7 M was more than 60% or the value of IC50 was more than 200 nM.).
CN(C)c1nc(N[C@H]2CC[C@@H](CNCc3cc(Cl)cc(Cl)c3)CC2)nc2c1CCCC2 [compound 1429] was tested, and the class was 3 (Class 3 The value of percent of control at 10^−7 M was more than 60% or the value of IC50 was more than 200 nM.).
In the case of COc1cc(CNC[C@H]2CC[C@@H](Nc3nc4c(c(N(C)C)n3)CCCC4)CC2)cc2c1OCO2 [compound 1430], the class was 2 (Class 2: The value of percent of control at 10^−7 M was from 40% to 60% or the value of IC′50 was from 50 nM to 200 nM.).
For COc1cc(CNC[C@H]2CC[C@@H](Nc3nc4c(c(N(C)C)n3)CCCC4)CC2)cc(Br)c1OC [compound 1431], the class was 3 (Class 3 The value of percent of control at 10^−7 M was more than 60% or the value of IC50 was more than 200 nM.).
In the case of COc1ccc(CNC[C@H]2CC[C@@H](Nc3nc4c(c(N(C)C)n3)CCCC4)CC2)cc1C [compound 1432], the class was 3 (Class 3 The value of percent of control at 10^−7 M was more than 60% or the value of IC50 was more than 200 nM.).
For COc1cc(Br)c(CNC[C@H]2CC[C@@H](Nc3nc4c(c(N(C)C)n3)CCCC4)CC2)cc1OC [compound 1433], the class was 3 (Class 3 The value of percent of control at 10^−7 M was more than 60% or the value of IC50 was more than 200 nM.).
In the case of Cc1oc(-c2ccccc2)cc1CNC[C@H]1CC[C@@H](Nc2nc3c(c(N(C)C)n2)CCCC3)CC1 [compound 1434], the class was 3 (Class 3 The value of percent of control at 10^−7 M was more than 60% or the value of IC50 was more than 200 nM.).
For COc1ccc(CNC[C@H]2CC[C@@H](Nc3nc4c(c(N(C)C)n3)CCCC4)CC2)cc1OC [compound 1435], the class was 3 (Class 3 The value of percent of control at 10^−7 M was more than 60% or the value of IC50 was more than 200 nM.).
For Cc1cc(CNC[C@H]2CC[C@@H](Nc3nc4c(c(N(C)C)n3)CCCC4)CC2)ccc1O [compound 1436], the class was 2 (Class 2: The value of percent of control at 10^−7 M was from 40% to 60% or the value of IC′50 was from 50 nM to 200 nM.).
COc1cc(C)c(CNC[C@H]2CC[C@@H](Nc3nc4c(c(N(C)C)n3)CCCC4)CC2)cc1C [compound 1437] was tested, and the class was 2 (Class 2: The value of percent of control at 10^−7 M was from 40% to 60% or the value of IC′50 was from 50 nM to 200 nM.).
With COc1cccc(CNC[C@H]2CC[C@@H](Nc3nc4c(c(N(C)C)n3)CCCC4)CC2)c1O [compound 1438] the class was 3 (Class 3 The value of percent of control at 10^−7 M was more than 60% or the value of IC50 was more than 200 nM.).
CN(C)c1nc(N[C@H]2CC[C@@H](CNCc3cc(C(F)(F)F)cc(Cl)c3F)CC2)nc2c1CCCC2 [compound 1439] was tested, and the class was 3 (Class 3 The value of percent of control at 10^−7 M was more than 60% or the value of IC50 was more than 200 nM.).
With CN(C)c1nc(N[C@H]2CC[C@@H](CNCc3cc(F)cc(C(F)(F)F)c3)CC2)nc2c1CCCC2 [compound 1440] the class was 3 (Class 3 The value of percent of control at 10^−7 M was more than 60% or the value of IC50 was more than 200 nM.).
With COc1cc(CNC[C@H]2CC[C@@H](Nc3nc4c(c(N(C)C)n3)CCCC4)CC2)cc(F)c1O [compound 1441] the class was 2 (Class 2: The value of percent of control at 10^−7 M was from 40% to 60% or the value of IC′50 was from 50 nM to 200 nM.).
For COc1cc(F)c(CNC[C@H]2CC[C@@H](Nc3nc4c(c(N(C)C)n3)CCCC4)CC2)cc1OC [compound 1442], the class was 3 (Class 3 The value of percent of control at 10^−7 M was more than 60% or the value of IC50 was more than 200 nM.).
For CCc1ccccc1CNC[C@H]1CC[C@@H](Nc2nc3c(c(N(C)C)n2)CCCC3)CC1 [compound 1443], the class was 3 (Class 3 The value of percent of control at 10^−7 M was more than 60% or the value of IC50 was more than 200 nM.).

Source: patent US20050197350A1, “Novel quinoline, tetrahydroquinazoline, and pyrimidine derivatives and methods of treatment related to the use thereof” (TAISHO PHARMACEUTICAL CO., LTD., priority 2003, published 2005)
